Results from patent US10457688B2, “Monocyclic thieno, pyrido, and pyrrolo pyrimidine compounds and methods of use and manufacture of same” (Duquesne University of the Holy Spirit, priority 2015, dated 2019).
Read-outs that look alike come from different tables or passages of the source.

Experiments:
[1] = test system: RT16 CHO cells expressing human FRα; details: cited from earlier work
[2] = test system: KB human tumor cells (RFC/FRα/PCFT); assay: growth inhibition, KB tumor cells; type: cell-based
Source text: The experiments with the CHO sublines were extended to KB human nasopharengeal carcinoma cells which express highly elevated FRα, along with RFC and PCFT.

[3] = test system: RT16 CHO cells expressing human FRα; assay: growth inhibition, CHO RT16 (FRα); type: cell-based, Chinese hamster
[4] = test system: PC43-10 CHO cells expressing human RFC; assay: growth inhibition, CHO PC43-10 (human RFC); type: cell-based, Chinese hamster
[5] = test system: D4 CHO cells expressing FRβ; assay: growth inhibition, CHO D4 (FRβ); type: cell-based, Chinese hamster
[6] = test system: MDA-MB-435 cancer cells; assay: antiproliferative sulforhodamine B assay (SRB assay), MDA-MB-435; type: cell-based; details: Homo sapiens
[7] = test system: cellular microtubules in A-10 cells; assay: cellular microtubule depolymerization, cell-based phenotypic assay; details: Rattus norvegicus
[8] = test system: R2/PCFT4 CHO cells expressing human PCFT; assay: growth inhibition, CHO R2/PCFT4 (PCFT); type: cell-based, Chinese hamster; details: Section III Table 1
[9] = test system: R2(VC) CHO cells (transporter-null); assay: growth inhibition, vector control R2(VC) CHO cells; type: cell-based, Chinese hamster; details: Cricetulus griseus, Section IV Table 1
[10] = Section IV Table 1, +FA, read-out: KB (+FA) IC50
[11] = Section IV Table 1, read-out: KB IC50 (RFC/FRα/PCFT)
[12] = Section IV Table 1, +FA, read-out: RT16 (+FA) IC50
[13] = Section IV Table 1, read-out: RT16 IC50 (FRα)
[14] = MDA-MB-435, read-out: IC50 ± SD (MDA-MB-435) Tumor cells
[15] = read-out: IC50 ± SD in MDA-435 Cells
[16] = A10, read-out: EC50 for Microtubule Depolymerization in A-10 Cells
[17] = A10, read-out: EC50 in A-10 cells (Loss of cellular microtubules)
[18] = A10, read-out: EC50 in A-10 cells (Tubulin polymerization inhibitory activity)
[19] = MDA-MB-435, Section VIII Table 1, read-out: IC50 + SD (MDA-MB-435) cancer cells
[20] = A10, Section VIII Table 1, read-out: EC50 in A-10 cells (Loss of cellular microtubules)
[21] = MDA-MB-435, Section VII Table 2, read-out: IC50 ± SD (MDA-MB-435) Tumor cells
[22] = Section VII Table 1, read-out: IC50 ± SD in MDA-435 Cells
[23] = A10, Section VII Table 1, read-out: EC50 for Microtubule Depolymerization in A-10 Cells
[24] = A10, Section VII Table 2, read-out: EC50 in A-10 cells (Tubulin polymerization inhibitory activity)
[25] = Homo sapiens, PC43-10, Section III Table 1

Nc1nc2[nH]c(CCCc3ccc(C(=O)N[C@@H](CCC(=O)O)C(=O)O)cc3)cc2c(=O)[nH]1 [AGF17]
selectivity for FR transport over RFC [1]: 25 fold

Nc1nc2[nH]c(CCOc3cccc(C(=O)N[C@@H](CCC(=O)O)C(=O)O)c3)cc2c(=O)[nH]1 [AGF220]
IC50 [2, 10]: > 1000 nM
IC50 [2, 11]: 13.1 nM
IC50 [3, 12]: > 1000 nM
IC50 [3, 13]: 30.3 nM
IC50 ([4]; Section IV Table 1): > 1000 nM

Nc1nc2[nH]c(CCNc3cccc(C(=O)N[C@@H](CCC(=O)O)C(=O)O)c3)cc2c(=O)[nH]1 [AGF256]
IC50 [2, 10]: > 1000 nM
IC50 [2, 11]: 14.8 nM
IC50 ([5]; Section IV Table 1, +FA, read-out: D4 (+FA) IC50): > 1000 nM
IC50 ([5]; Section IV Table 1, read-out: D4 IC50 (FRβ)): 4.19 nM
IC50 [3, 12]: > 1000 nM
IC50 [3, 13]: 15.9 nM
IC50 ([4]; Section IV Table 1): > 1000 nM

CSc1ccc(N(C)c2nc(C)nc3cc[nH]c23)cc1 [Compound 4]
IC50 ([2]; Homo sapiens, read-out: KB IC50 (FRα/PCFT/RFC)): 6.13 nM
IC50 ([6]; MDA-MB-435, read-out: IC50 + SD (MDA-MB-435) cancer cells): 4 ± 0.5 nM
IC50 [6, 14]: 4.4 ± 0.2 nM
IC50 [6, 15]: 4.4 ± 0.2 nM
IC50 ([5]; Cricetulus griseus, CHO, read-out: D4 IC50 (FRβ)): 6.11 nM
IC50 ([3]; Cricetulus griseus, RT16, read-out: R16 IC50 (FRα)): 1.72 nM
EC50 [7, 16]: 42 nM
EC50 [7, 17]: 10 nM
EC50 [7, 18]: 42 nM

COc1cccc2cc(N(C)c3nc(C)nc4sccc34)ccc12 [Compound 6]
IC50 [6, 19]: 3.8 nM
EC50 [7, 20]: 2.5 nM

CSc1ccc(N(C)c2ncnc3ccsc23)cc1 [Compound 6]
IC50 [8]: 8.23 nM
IC50 [6, 21]: 28.2 ± 5.5 nM
IC50 [6, 22]: 28.2 ± 5.5 nM
EC50 [7, 23]: 707 nM
EC50 [7, 24]: 707 nM
IC50 [4, 25]: 207 nM

COc1ccc(Nc2nc(C)nc3sc(C)c(C)c23)cc1 [Compound 7]
EC50 [7, 20]: > 10000 nM

COc1ccc2c(c1)CCCN2c1nc(C)nc2ccsc12 [Compound 7]
IC50 ([2]; Homo sapiens, Section VI Table 1, read-out: KB IC50 (FRα/PCFT/RFC)): 38.9 nM
IC50 [6, 21]: 3.4 ± 0.9 nM
IC50 [6, 22]: 3.4 ± 0.9 nM
EC50 [7, 23]: 8 nM
EC50 [7, 24]: 8 nM

COc1ccc(N(C)c2nc(C)nc3sc(C)c(C)c23)cc1 [Compound 8]
IC50 [6, 19]: 10.7 ± 1 nM
EC50 [7, 20]: 18 nM

CSc1ccc2c(c1)CCCN2c1ncnc2ccsc12 [Compound 8]
IC50 [6, 21]: 3.8 ± 0.3 nM
IC50 [6, 22]: 3.8 ± 0.3 nM
EC50 [7, 23]: 22 nM
EC50 [7, 24]: 22 nM

COc1ccc2c(c1)OCCN2c1nc(C)nc2ccsc12 [Compound 9]
IC50 [6, 22]: 109 nM
EC50 [7, 23]: 237 nM
EC50 [7, 24]: 237 nM

CSc1ccc(N(C)c2nc(C)nc3sc(C)c(C)c23)cc1 [Compound 9]
IC50 [6, 19]: 34.8 ± 3.7 nM
EC50 [7, 20]: 128 nM

COc1ccc2c(c1)CCCN2c1nc(C)nc2sc(C)c(C)c12 [Compound 10]
EC50 [7, 20]: > 10000 nM

COc1cccc2cc(N(C)c3nc(C)nc4ccsc34)ccc12 [Compound 10]
IC50 [6, 21]: 1.7 ± 0.2 nM
IC50 [6, 22]: 1.7 ± 0.2 nM
EC50 [7, 23]: 3 nM
EC50 [7, 24]: 3 nM

COc1ccc2c(c1)OCCN2c1nc(C)nc2sc(C)c(C)c12 [Compound 11]
EC50 [7, 20]: 1200 nM

COc1cccc2cc(N(C)c3ncnc4ccsc34)ccc12 [Compound 11]
IC50 [6, 14]: 15.7 ± 2.2 nM
IC50 [6, 15]: 15.7 ± 2.2 nM
EC50 [7, 23]: 61 nM

CN(Cc1cnc2nc(N)nc(N)c2n1)c1ccc(C(=O)N[C@@H](CCC(=O)O)C(=O)O)cc1 [MTX, methotrexate, reference compound]
IC50 [9]: > 1000 nM

Nc1nc2[nH]cc(CCc3ccc(C(=O)N[C@@H](CCC(=O)O)C(=O)O)cc3)c2c(=O)[nH]1 [PMX, pemetrexed, reference compound]
IC50 ([2]; Homo sapiens, Section III Table 1, read-out: KB IC50 (RFC/FRα/PCFT)): 9.94 nM
IC50 [4, 25]: 30.6 nM

Cc1nc2ccc(CN(C)c3ccc(C(=O)N[C@@H](CCC(=O)O)C(=O)O)s3)cc2c(=O)[nH]1 [RTX, raltitrexed]
IC50 [9]: > 1000 nM

COc1ccc(N(C)c2nc(C)nc3cc[nH]c23)cc1 [compound 1]
IC50 [6, 21]: 96.6 ± 5.3 nM
IC50 [6, 22]: 96.6 nM

COc1ccc(N(C)c2nc(C)nc3ccsc23)cc1 [compound 2]
IC50 [6, 14]: 7 ± 2.7 nM
IC50 [6, 15]: 7 ± 2.7 nM
EC50 [7, 16]: 27 nM
EC50 [7, 18]: 27 nM

CSc1ccc(Nc2nc(C)nc3sccc23)cc1 [compound 2]
EC50 [7, 17]: > 10000 nM

COc1ccc(N(C)c2nc(C)nc3sccc23)cc1 [compound 3]
IC50 [6, 19]: 7.6 nM
EC50 [7, 20]: 15.4 nM

CSc1ccc(Nc2nc(C)nc3cc[nH]c23)cc1 [compound 3]
IC50 [6, 21]: 2100 ± 70 nM
IC50 [6, 22]: 2100 ± 70 nM
EC50 [7, 23]: 25000 nM
EC50 [7, 24]: 25000 nM
